From US10426842B2, “Targeted nanoparticle conjugate and method for co-delivery of siRNA and drug” (The Curators of the University of Missouri, priority 2015, dated 2019) come the findings set out here.

For series [1], the system named is NT5E (CD73) gene expression in H23 cells. The series is described as follows: Quantitative real-time RT-PCR of NT5E (CD73). The class given is cell-based, human. The conditions noted are these: relative to untreated, 18sRNA reference. (Quantitative PCR measures a nucleic acid by following its amplification.)
Method: (§1) The effect of the oncogene knockdown on gene expression of DUSP6 and NT5E genes were observed by quantitative real-time RT-PCR. Initially H23 cells (1×10^6 cells/well) were treated with 4 samples including untreated, GelNP-Ab, GelNP-Ab-siRNA and siRNA (transfection agent). RNA was extracted through standard RNA extraction protocol. cDNA was synthesized from RNA extracted from the treated cells. The quality and the concentration of the extracted RNA was determined using bioanalyzer. 18sRNA was used as an reference gene (housekeeping gene) for data normalization. Primers and probes for all genes were purchased from Integrated DNA Technologies (IDT). PCR was performed in a reaction volume of 20 μl containing 2 μl cDNA using the Gene Amp 7700 Sequence Detection System. The comparative Ct protocol was followed to determine the relative expression levels.
Series [2] has as its system DUSP6 gene expression in H23 cells. The series is described as follows: Quantitative real-time RT-PCR of DUSP6. The conditions noted are these: relative to untreated, 18sRNA reference. The class given is cell-based, human.
Method: In this inquiry, quantitative real time PCR was performed to examine dual specificity phosphatase 6 (DUSP6) and CD73 gene expression levels.
as §1
For series [3], the system named is SHP2, pSHP2 (Y542), pSHP2 (Y580) in KRAS mutated H23 cells. The series is described as follows: Western blot and densitometry for SHP2 and phospho-SHP2. In general terms: A western blot detects proteins with antibodies after separation by electrophoresis.
Method: The Western blot analysis was performed as follows. Cells were seeded at a density of 1×10^6 cells/ml and incubated for overnight at 37° C. in 5% CO2 atmosphere. Nanoparticle and relevant control samples were incubated in serum free media for the period of 72 hrs. […] Whole-cell lysates were prepared using Triton X 100 lysis buffer with MS-SAFE protease and phosphatase cocktail inhibitor (Sigma-Aldrich) and the protein concentration was equalized by Bicinchoninic acid assay (Sigma-Aldrich).
Membranes were incubated with primary antibody overnight, were washed and incubated with secondary antibody. Primary antibodies used for western blotting are rabbit polyclonal anti-β-actin, rabbit monoclonal anti-AKT, rabbit monoclonal anti-phospho-AKT, rabbit polyclonal anti-MEK1/2, rabbit polyclonal anti-phospho-MEK1/2, rabbit monoclonal anti-EGFR, rabbit monoclonal anti-phospho-EGFR, rabbit monoclonal anti-SHP2, rabbit polyclonal anti-phospho-SHP2 (Tyr542), rabbit polyclonal anti-phospho-SHP2 (Tyr580), rabbit monoclonal anti-phospho-GAB1 (Tyr627), rabbit polyclonal anti-phospho-GAB1 (Tyr307), all from Cell Signaling and mouse monoclonal anti-KRAS from Santa Cruz Biotech. […] Protein expression levels were quantified by densitometry analysis.
The subject of series [4] is H23 human adenocarcinoma non-small cell lung cancer cells. As to the method: Considering downregulation of downstream-phosphorylated proteins, the cell viability of H23 cells (MTT assay) after knocking down the RAS pathway was then investigated.
(Thermo Scientific, USA). For determining in vitro cytotoxicity, the MTT assay was performed by incubating various samples including the nanoparticle of interest on H23 and A549 cells.
Each sample was analyzed in triplicate. After 24 hours of incubation, 10 μl of MTT solution (ATCC, USA) was added and the plate was incubated at 37° C. for 4 hours. Crystals formed were dissolved in 100 μl solubilizing buffer and the plates were kept at 25° C. for 2 hours. The intensity of the color developed after addition of the solubilizing buffer was measured using Biotek Cytation 3 spectrophotometer at 570 nm.
Viability of the cells transfected with various samples was then calculated by considering the untreated cells as 100% viable.

Turning to “transfected siRNA: KRAS G12C siRNA (SEQ ID NO. 1 annealed with SEQ ID NO. 2) delivered with transfecting agent (sense GUUGGAGCUUGUGGCGUAGUUUU; antisense AACUACGCCACAAGCUCCAACUU; disulfide moiety, further chemistry not given here)”, in series [1], the “CD73 (NT5E) RF value (real time qPCR)” value is 1.07. Further, in series [2], the “RF value of DUSP6 (real time qPCR)” value is given as 0.1. The “SHP2, pSHP2 (Y542) and pSHP2 (Y580) level” value in series [3] (in the presence of gefitinib) is “significant downregulation”; in series [3] (without gefitinib), “did not show any effect”. For the same substance, the “cytotoxicity / change in viability (in words)” value in series [4] was “no toxicity”. The “cell survival post RAS oncogene knockdown” value in series [4] (H23 cells, without gefitinib) amounted to 100%.
